From patent publication US6485970B1, “Immunointeractive antibody” (priority 1997, dated 2002)
Ends that are not written are not given here.

Key:
sensory nerves [1] = test: Rat footpad blister model, vascular response to antidromic electrical stimulation of the sciatic nerve; type: in vivo
Experimental: (§1) A vacuum-induced blister model in the footpad of anaesthetised rats is used to induce an inflammatory response in naive skin by (a) electrical stimulation (ES) of the distal end of the cut sciatic nerve at 20 v, 5 Hz, […] for 1 min or (b) superfusion of the sensory neuropeptide; substance P (SP) over the blister base.
(§2) Male outbred Sprague-Dawley rats with an average weight of 250-300 gm were used (n=6-8 per group). Anaesthesia was induced with pentobarbitone sodium (Nembutal, 60 mg/kg, i.p.). To ensure that rats remained under a constant stage of surgical anaesthesia additional doses (15 mg/kg) were administered during the experiment. The absence of an eyelash reflex was used as an indication of the level of unconciousness. At the end of the experiment, animals were killed by barbituate overdose (100 mg/kg).
A blister was induced on the hind footpad on the anaesthetised rat by applying a vacuum pressure of −40 kPa to the glabrous skin for approximately 30 mins, using a metal suction cap heated to 40° C. by an attached heating element.
When a blister was established, the surface epithelium was removed and a perspex chamber with inlet and outlet ports was fixed over the blister base. Perfusion of the drugs over the blister was maintained at 4 ml/h by a peristaltic pump (Microperpex S, LKB, Sweden). Both perfusion and body temperature were kept at 37° C.
An initial 15 min equilibration with Ringer's solution (NaCl 9.0 g, KCl 0.42 g, CaCl2 0.48 g, NaHCO3 0.2 g in 1000 ml dH2O) was allowed before each experiment, during which time a stable baseline was established.
The right sciatic nerve in the mid-thigh region of the anaesthetised rat was dissected free and cut as proximally as possible. The distal portion of the cut nerve was placed over bipolar platinum electrodes and immersed in liquid paraffin warmed to 37° C. and contained in a bath that was formed by raising the skin flaps of the wound. The distal end of the sciatic nerve was stimulated with a Grass S48 stimulator at 20 V, 5 Hz, 0.5 ms square waves for 1 min. These parameters were previously shown to stimulate sensory nerves with subsequent release of sensory peptides.
(§3) For measurement of local blood flow, a probe attached to a laser Doppler flowmeter (Periflux, PF2B, Perimed, Sweden) was inserted vertically through a third port in the perspex chamber above the blister base. Relative blood flow was recorded over time on a chart recorder and measured as the surface area under the response curve in cm^2 using a digital planimeter.
(§4) Vasodilator responses were measured as the area under the response curve (cm^2) using a digital planimeter (Tamaya, Japan). For vascular responses to ES the area was measured for 20 min following stimulation. […] Results are expressed as mean±SEM. […]

[2] = human, in vivo
sensory nerves [3] = test: Rat footpad blister model, vascular response to substance P perfusion; type: in vivo; conditions: SP 1 μM alone
Experimental: as §1
as §2, with “At the end of the experiment, animals were killed by barbituate overdose (100 mg/kg).” left out
as §3, §4

BA-TABM = test: Competitive inhibition ELISA, BA-TABM against plate bound BA-HSA; type: binding, human; conditions: competitor pre-incubated with BA-TABM
Experimental: FIG. 13 is a graphical representation of competitive inhibition ELISA between BA-TABM and various haptens. Purified BA-TABM was diluted and pre-mixed with various haptens. […] The amount of TABM binding as determined using the mouse monoclonal anti-human TABM antibody (MG3C9-1A12). [drawing 12]
FIG. 14 is a graphical representation showing inhibition ELISA between BA-TABM and various chemicals. Purified BA-TABM was diluted and pre-mixed with various chemicals. […] The amount of TABM binding was determined using the mouse monoclonal anti-human TABM antibody (MG3C9-1A12). [drawing 13]
The competing antigens or haptens were serially diluted (½) in the diluted serum to give a range equivalent to 5000-312.5 ng per well. […] The plate was then incubated for 60 minutes at 37° C. After washing, mouse anti-human TABM was diluted ( 1/2000), added to the plate and incubated for 90 minutes at 37° C., followed by sheep anti-mouse immunoglobulins ( 1/1000). The assay was then completed as previously described. The same ELISA conditions were used with non-bound organic molecules, except that pre-incubation of competing molecules with BA-TABM and serum was for 60 minutes.

COc1cc(CNC(=O)CCCC/C=C/C(C)C)ccc1O [capsaicin, reference compound]
area of the vascular response to ES (sensory nerves [1]; capsaicin-pretreated rats (50 mg/kg s.c., neonatal), no TGF-β): 11.7±1.1 cm^2

Cc1ccccc1 [toluene]
Digit Symbol, Post Challenge Mean [2]: 40.00 No. of correct items
Focal Length, Post Challenge Mean [2]: 29.53 cms
Letter Cancellation [2]: 63% correct
Letter Cancellation Time, Post Challenge Mean [2]: 4.79 min
Letter Cancellation time [2]: (5′40″)
Letter Cancellation, Post Challenge Mean [2]: 77.56 % Correct
Prose Memory (delayed), Post Challenge Mean [2]: 8.77 No. Items recalled
Prose Memory (immediate), Post Challenge Mean [2]: 7.36 No. Items recalled
Prose: Delayed Recall [2]: 6.5 items
Prose: Immediate Recall [2]: 6 items
STROOP (colour), Post Challenge Mean [2]: 74.43 No. seconds/100 words
STROOP (colour-word), Post Challenge Mean [2]: 119.73 No. seconds/100 words
STROOP (word), Post Challenge Mean [2]: 58.93 No. seconds/100 words
Stroop: Colour word [2]: 161 s
Stroop: Colours [2]: 90 s
Stroop: Words [2]: 75 s
Symbol Digit [2]: 32 items

Substance P (RPKPQQFFGLM; ends and bridges not checked; UniProt P20366 58-68, looked up) [SP, sensory neuropeptide]
vasodilatation response to SP, area under curve 30 min (sensory nerves [3]): 44.1±3.9 cm^2

TGF-β
area of the vascular response to ES in presence of TGF-β (sensory nerves [1]; capsaicin-pretreated rats, TGF-β 10 pg/ml): 12.1±1.0 cm^2
effect on baseline blood flow (sensory nerves [1]; control rats, TGF-β 10 pg/ml): did not alter the baseline
area under the vascular response curve to ES, 20 min (sensory nerves [1]; control rats, TGF-β 10 pg/ml perfused 10 min prior to ES and post stimulation): 31.44±3.2 cm^2

TMA-BSA: trimellitic acid (TMA) protein conjugate
inhibition of BA-TABM binding to plate bound BA-HSA (BA-TABM): Weaker inhibition
